Among the data in ChEMBL document CHEMBL4680271, “COVID-19: Drug Targets and Potential Treatments” (J Med Chem, 2020) are CC50 and IC50 values, retold here.

Where only a bound is given, the exact number is not on record here.

Series [1] can be described thus: Cytotoxicity against African green monkey Vero E6 cells by CCK8 assay. The class given is cell-based, Vero C1008. Conditions: chlorocebus sabaeus. Background: Tetrazolium assays rely on reduction of a dye to a coloured formazan, in cell work by metabolically active cells.
The nature of series [2]: Inhibition of SARS-CoV2 3C-like protease expressed in Escherichia coli BL21 (DE3) cells using Mca-AVLQSGFR-K(Dnp)K as substrate by fluorescence method. The arrangement: species or system Severe acute respiratory syndrome coronavirus 2.
The nature of series [3]: Inhibition of SARS-CoV 3C-like protease expressed in Escherichia coli BL21 using Dabcyl-KTSAVLQSGFRKME-Edans fluorogenic peptide as substrate by fluorometric assay. Also noted: species or system Severe acute respiratory syndrome-related coronavirus.
Series [4] can be described thus: Inhibition of MERS-CoV 3C-like protease expressed in Escherichia coli BL21 using Dabcyl-KTSAVLQSGFRKME-Edans fluorogenic peptide as substrate by fluorometric assay. Also noted: species or system Middle East respiratory syndrome-related coronavirus.
Series [5] is described as follows: Inhibition of SARS-CoV2 3C-like protease expressed in Escherichia coli BL21-Gold (DE3) cells using Dabcyl-KTSAVLQSGFRKM-E(Edans)-NH2 as substrate by FRET-based cleavage assay. Also noted: species or system Severe acute respiratory syndrome coronavirus 2.
Series [6] in a line: Inhibition of SARS-CoV 3C-like protease expressed in African green monkey Vero cells using SAVLQSGFRK as substrate by dual luciferase reporter assay. It counts as cell-based, Severe acute respiratory syndrome-related coronavirus. A general note: A reporter such as luciferase makes a cellular process visible.
Series [7] is described as follows: Inhibition of C-terminal 6His-tagged SARS-CoV papain-like protease expressed in Escherichia coli BL21 (DE3) CodonPlus-RIL using Arg-Leu-Arg-Gly-Gly-AMC as substrate by fluorescence method. The arrangement: species or system Severe acute respiratory syndrome-related coronavirus.
The nature of series [8]: Inhibition of C-terminal 6His-tagged SARS-CoV 3C-like protease expressed in Escherichia coli BL21 (DE3) CodonPlus-RIL using 12-mer fluorogenic peptide Dabcyl-KNSTLQSGLRKE-Edans as substrate incubated for 60 mins by fluorescence method. The arrangement: species or system Severe acute respiratory syndrome-related coronavirus.

The term CC50 denotes the concentration that lowers cell viability or growth by half. Turning to `NC(=O)c1nc(F)c[nH]c1=O`, the CC50 in series [1] was over 400 µM.

A word on the IC50: it is the midpoint of a concentration-inhibition curve. In series [2], `Cn1sc(=O)n(Cc2ccccc2)c1=O` had an IC50 of 2.5 µM.

Take `O=C[C@H](CC1CCNC1=O)NC(=O)[C@@H](Cc1ccccc1)NC(=O)/C=C/c1ccc(Cl)cc1F` (stereo not given in full): the figures for the IC50 in series [3] and in series [4] were 0.2 µM and 1.17 µM, respectively.

The compound `CC(C)(C)CC(=O)Nc1cccc([C@@H](CC2CC2)C(=O)N[C@@H](CC2CCNC2=O)C(=O)C(=O)NCc2ccccc2)c1O` (stereo not given in full) showed an IC50 in series [5] of 0.67 µM.

Take `COc1ccc(C(=O)/C=C/c2ccc(O)cc2)c(O)c1CC(O)C(C)=O` (stereo not given): in series [6], 7.1 µM corresponded to half-maximal inhibition (IC50).

Turning to `O=C(/C=C/CCc1ccc(O)c(O)c1)CCc1ccc(O)c(O)c1` [DEHYDROHIRSUTANONOL], the IC50 was 4.1 µM in series [7] and 36.2 µM in series [8].

As to `Nc1nc2c(ncn2CCC(CO)CO)c(=O)[nH]1` [PENCICLOVIR], the CC50 in series [1] is over 400 µM.

In series [1], `NC(=O)c1ncn([C@@H]2O[C@H](CO)[C@@H](O)[C@H]2O)n1` [RIBAVIRIN] returned a CC50 of over 400 µM.
